Read-outs that look alike come from different tables or passages of the source.
Experiments:
[1] = system: multiple myeloma residual disease (diseased cells mobilized into blood)
Protocol: Patients may be matched across experimental groups by age, sex, and other clinical factors, such as multiple myeloma burden or genetic profile of the multiple myeloma in the patient. When in complete remission using conventional techniques after appropriate therapy, patients in the control group undergo a blood as well as bone marrow examination each of which is subjected to MRD detection/assay using the ClonoSEQ® technique (Adaptive Biotechnologies). […] About 12 hours after plerixafor administration, patients in the LBYE group undergo a blood draw. The blood samples are subjected to MRD assay using the ClonoSEQ® technique. […] In another variation of the experiment, where myeloma patients serve as their own controls, patients undergo bone marrow examination after attaining complete remission. The marrow is subjected to MRD assay by ClonoSEQ®. After the marrow exam is done, each patient receives 20 mg plerixafor and the blood is sampled 12 hours later. Blood samples are subjected to MRD assay by ClonoSEQ®.

cfDNA / ctDNA = details: plasma
Protocol: Cell-free DNA (cfDNA) is isolated from patient plasma samples according to known methods. The concentration of the isolated cfDNA from LBYE and control patients are determined.

[2] = system: multiple myeloma mutations and genetic variations; details: single dose of 20 mg, blood 12 hours later, vs control group bone marrow
Excerpt: Patients may be matched across experimental groups by age, sex, and other clinical factors, such as multiple myeloma burden or genetic profile of the multiple myeloma in the patient.

[3] = system: lymphoma residual disease (diseased cells mobilized into blood)
Protocol: About 12 hours after plerixafor administration, patients in the LBYE group undergo a blood draw. The blood samples are subjected to MRD assay. […] In another variation of the experiment, where lymphoma patients serve as their own controls, patients undergo blood sampling after attaining complete remission. The blood is subjected to MRD assay. After the blood test is done, each patient receives 20 mg plerixafor and the blood is sampled 12 hours later. These blood samples are subjected to MRD assay by the same technique.

[4] = system: solid tumor residual disease (diseased cells mobilized into blood)
Protocol: When in complete remission using conventional techniques after appropriate therapy, patients in the control group undergo a blood examination each of which is subjected to MRD detection/assay using an appropriate assay (e.g. The Guardant 360 liquid biopsy or the Tempus XF liquid biopsy). […] About 12 hours after plerixafor administration, patients in the LBYE group undergo a blood draw. The blood samples are subjected to the same MRD assay.
In another variation of the experiment, where cancer patients serve as their own controls, patients undergo blood examination after attaining complete remission. Afterwards, each patient receives 20 mg plerixafor and the blood is sampled 12 hours later. Both samples are subjected to MRD assay.

[5] = system: lymphoma mutations and genetic variations; details: single dose of 20 mg, blood 12 hours later, vs control group bone marrow
Protocol: Human patients who are diagnosed with lymphoma are split into two experimental groups, an “LBYE” group and a “control group.” Patients may be matched across experimental groups by age, sex, and other clinical factors, such as lymphoma burden or genetic profile of the lymphoma in the patient.
Patients in the “LBYE” experimental group are administered a single dose of 20 mg plerixafor and undergo blood sampling 12 hours later. This sample is analyzed for the presence of various mutations and genetic variations known to influence prognosis in myeloma. […] In a variation on the above experiment, the LBYE group patients undergo a bone marrow examination which is subjected to appropriate testing.
In another variation on the experiment, the LBYE group's marrow and blood sample are pooled and analyzed in a single assay to make the test more cost-effective. […] The mononuclear cell fraction is analyzed for the presence of lymphoma CTCs by multiparametric flow cytometry according to methods described herein. Lymphoma CTCs are genetically profiled, e.g., by sequencing to determine the mutational profile of the CTCs. Mutational profile of the CTC sample is, in some cases, compared to mutational profile of lymphoma cells obtained from bone marrow sample from the same patient.

[6] = system: solid tumor mutations and genetic variations; details: single dose of 20 mg, blood 12 hours later, vs control group solid tumor examination
Protocol: Human patients who are diagnosed with one or more solid tumors are split into two experimental groups, an “LBYE” group and a “control group.” Patients may be matched across experimental groups by age, sex, and other clinical factors, such as solid tumor burden or genetic profile of the solid tumor in the patient.
Patients in the “LBYE” experimental group are administered a single dose of 20 mg plerixafor and undergo blood sampling 12 hours later. This sample is analyzed for the presence of various mutations and genetic variations known to influence prognosis in myeloma. […] In a variation on the above experiment, the LBYE group patients undergo a solid tumor examination which is subjected to appropriate testing.
In another variation on the experiment, the LBYE group's tumor and blood samples are pooled and analyzed in a single assay to make the test more cost-effective. […] The mononuclear cell fraction is analyzed for the presence of solid tumor CTCs by multiparametric flow cytometry according to methods described herein. Solid tumor CTCs are genetically profiled, e.g., by sequencing to determine the mutational profile of the CTCs. Mutational profile of the CTC sample is, in some cases, compared to mutational profile of solid tumor cells obtained from solid tumor sample from the same patient.

HSC = details: in vivo; cited from earlier work
[7] = complete remission, single 20 mg dose, blood about 12 hours after, vs control group blood and bone marrow
[8] = patients as own controls, 20 mg, blood 12 hours later

c1cc(CN2CCCNCCNCCCNCC2)ccc1CN1CCCNCCNCCCNCC1 [plerixafor, 1-{[4-(1,4,8,11-tetrazacyclotetradec-1-ylmethyl)phenyl]methyl}-1,4,8,11-tetrazacyclotetradecane]
Number of patients with residual disease detected (MRD assay, ClonoSEQ) [1, 7]: Residual disease is detected in a greater number of patients in the LBYE group than in the control group
Proportion of patients positive for MRD, blood after LBYE vs bone marrow ([1]; patients as own controls, 20 mg, blood 12 hours later, ClonoSEQ): A greater proportion of patients is found to be positive for MRD from the blood after the LBYE technique than the bone marrow
cfDNA concentration/amount after LBYE (cfDNA / ctDNA; lymphoma, patients as own controls, amongst patients positive for MRD): the concentration/amount of cfDNA is higher after LBYE
cfDNA concentration, LBYE group vs control group (cfDNA / ctDNA; multiple myeloma): higher cfDNA concentrations than patients in the control group
cfDNA concentration, LBYE group vs control group (cfDNA / ctDNA; solid tumor): higher cfDNA concentrations than patients in the control group
Frequency and breadth of abnormalities (mutations and genetic variations) [2]: greater frequency and breadth of abnormalities than those in the control group
Number of patients with residual disease detected (MRD assay) [3, 7]: Residual disease is detected in a greater number of patients in the LBYE group than in the control group
Proportion of patients positive for MRD, blood after LBYE vs non-LBYE blood sample [3, 8]: A greater proportion of patients is found to be positive for MRD from the blood after the LBYE technique than the non-LBYE blood sample
Number of patients with residual disease detected (MRD assay) ([4]; complete remission, single 20 mg dose, blood about 12 hours after, vs control group blood): Residual disease is detected in a greater number of patients in the LBYE group than in the control group
Proportion of patients positive for MRD, post- vs pre-plerixafor blood sample [4, 8]: A greater proportion of patients is found to be positive for MRD from the blood sample obtained after plerixafor administration, as compared to the pre-plerixafor blood sample
Frequency and breadth of abnormalities (mutations and genetic variations) [5]: greater frequency and breadth of abnormalities than those in the control group
Frequency and breadth of abnormalities (mutations and genetic variations) [6]: greater frequency and breadth of abnormalities than those in the control group
Mobilization of HSC (HSC): rapidly mobilize HSC within hours

— patent US11933783B2, “Liquid biopsy yield enhancement” (priority 2020, dated 2024)
